Data: patent US20240408226A1, “ANTIBODY DRUG CONJUGATE INTERMEDIATE CONTAINING SN38 AND ITS PREPARATION METHOD” (priority 2021, published 2024)

What was measured:
[1] = Stability in PB (0.2 M) buffer at 37° C., quantified by LC-MS; format: physicochemical; conditions: for Remaining fraction T/T0: 37° C.
Protocol: The system was placed in a constant temperature system of 37° C. […] The system was placed in a constant temperature system of 37° C.; • 4) 40 μL of sample was respectively taken at 0 h, 2 h, 4 h, 6 h, 24 h, and 48 h, added with 120 μL of acetonitrile, and centrifuged. The supernatant was taken for quantitative determination by LC-MS. • 5) Results processing.
The concentration at T=0 h in LC-MS was used as the reference, and the data were calculated by T/T0*100%. The results are shown in Table 3 and Table 4, respectively.

small cell lung cancer = small cell lung cancer in which multiple treatments had failed; cited from earlier work
[2] = test system: non-small cell lung cancer; conditions: non-small cell lung cancer after failed chemotherapy, targeting therapy and PD-1 treatment; cited from earlier work
[3] = test system: triple-negative breast cancer; conditions: clinical phase II; cited from earlier work

Row | Compound | decomposed ([1]; alkaline conditions, at 24 h) [%] | decomposed ([1]; neutral conditions, at 6 h) [%] | decomposed ([1]; neutral conditions, at 24 h) [%] | Remaining fraction T/T0 ([1]; pH = 6, 0 h, 60 μg/mL) | Remaining fraction T/T0 ([1]; pH = 6, 2 h, 60 μg/mL) | Remaining fraction T/T0 ([1]; pH = 6, 4 h, 60 μg/mL) | Remaining fraction T/T0 ([1]; pH = 6, 6 h, 60 μg/mL) | Remaining fraction T/T0 ([1]; pH = 6, 24 h, 60 μg/mL) | Remaining fraction T/T0 ([1]; pH = 6, 48 h, 60 μg/mL) | Remaining fraction T/T0 ([1]; pH = 7, 0 h) | Remaining fraction T/T0 ([1]; pH = 7, 2 h) | Remaining fraction T/T0 ([1]; pH = 7, 4 h) | Remaining fraction T/T0 ([1]; pH = 7, 6 h) | Remaining fraction T/T0 ([1]; pH = 7, 24 h) | Remaining fraction T/T0 ([1]; pH = 7, 48 h) | Remaining fraction T/T0 ([1]; pH = 8, 0 h) | Remaining fraction T/T0 ([1]; pH = 8, 2 h) | Remaining fraction T/T0 ([1]; pH = 8, 4 h) | Remaining fraction T/T0 ([1]; pH = 8, 6 h) | Remaining fraction T/T0 ([1]; pH = 8, 24 h) | further results
1 | CCc1c2c(nc3ccc(O)cc13)-c1cc3c(c(=O)n1C2)COC(=O)[C@@]3(CC)OC(=O)OCc1ccc(NC(=O)[C@@H](CCCCN)NC(=O)COCC(=O)NCCOCCOCCOCCOCCOCCOCCOCCOCCn2cc(CNC(=O)C3CCC(CN4C(=O)C=CC4=O)CC3)nn2)cc1 (stereo partly drawn) [CL2A-SN38] | 98 | 43 | 98 | 1 | 0.7479 | 0.6471 | 0.413 | 0.03593 | 0.02024 | 1 | 0.7038 | 0.5851 | 0.5715 | 0.02261 | 0.01906 | 1 | 0.6287 | 0.4347 | 0.3844 | 0.02532 | Remaining fraction T/T0 ([1]; pH = 8, 48 h): 0.01928; decomposed ([1]; pH of 6, after 48 h): 98.0%; decomposed ([1]; pH of 7, after 48 h): 98.1%; decomposed ([1]; pH of 8, after 48 h): 98.1%
2 | CCc1c2c(nc3ccc(OC(=O)N(CCOCCOC(=O)N(C)CCN(C)C)CCN(C)C(=O)OCc4ccc(NC(=O)[C@H](CCCNC(N)=O)NC(=O)[C@@H](NC(=O)CCCCCN5C(=O)C=CC5=O)C(C)C)cc4)cc13)-c1cc3c(c(=O)n1C2)COC(=O)[C@]3(O)CC [Compound of formula (1), maleimidohexanoic acid-L-valyl-L-citrulline-p-aminobenzyl-(N-methylethyldiethoxy-N,N,N-trimethylethylenediami ne)-camptothecin] | 97 | 18 | 75 | 1 | 0.9886 | 0.9761 | 0.9208 | 0.8682 | 0.7886 | 1 | 0.8789 | 0.8018 | 0.8219 | 0.2567 | 0.1222 | 1 | 0.5641 | 0.2841 | 0.1234 | 0.009607 | Remaining fraction T/T0 ([1]; pH = 8, 48 h): 0.01256; decomposed ([1]; pH of 6, after 48 h): 21.2%; decomposed ([1]; pH of 7, after 48 h): 87.8%; decomposed ([1]; pH of 8, after 48 h): 98.7%; Stability compared with CL2A-SN38 ([1]; weak acidic conditions): more stable than CL2A-SN38; Stability compared with CL2A-SN38 ([1]; weak acidic or neutral conditions): higher stability
3 | Sacituzumab govitecan |  |  |  |  |  |  |  |  |  |  |  |  |  |  |  |  |  |  |  |  | tumor shrinkage, share of patients (small cell lung cancer): 60%; control rate [2]: up to 43%; effective rate [3]: 30%; tumor shrinkage, share of patients [3]: 69.5%
